Results from the NIST ThermoML archive (doi:10.1021/je401118k).

Test: mn = molality of the nth substance listed, in mol/kg
Conditions: for electrical conductivity: 101 kPa, Liquid, Alternating current cell with electrodes; for surface tension liquid-gas: Ring tensiometer

C[N+]1(CCC[Si](O[Si](C)(C)C)(O[Si](C)(C)C)O[Si](C)(C)C)CCCC1.O=[N+]([O-])[O-] + O
Conditions	electrical conductivity, 288.15 K [S/m]	electrical conductivity, 293.15 K [S/m]	electrical conductivity, 298.15 K [S/m]	electrical conductivity, 303.15 K [S/m]	electrical conductivity, 308.15 K [S/m]	surface tension liquid-gas, 298.15 K [mN/m]
m1 = 1e-06	–	–	–	–	–	71.3
m1 = 1e-05	–	–	–	–	–	67.8
m1 = 0.0001	–	–	–	–	–	54.3
m1 = 0.0006	–	–	–	–	–	42
m1 = 0.0008	0.00614	0.00666	0.00734	0.00801	0.00864	–
m1 = 0.0009	0.00682	0.00744	0.00818	0.00894	0.00984	–
m1 = 0.001	0.00733	0.0081	0.00888	0.00967	0.01058	37.4
m1 = 0.002	0.0143	0.01556	0.01717	0.01881	0.0212	33.3
m1 = 0.003	0.0209	0.0231	0.0255	0.0279	0.0302	30.3
m1 = 0.004	0.0264	0.0291	0.0321	0.0354	0.0388	27.6
m1 = 0.005	0.0282	0.031	0.0348	0.0392	0.0438	26.1
m1 = 0.006	0.03	0.0329	0.0367	0.0414	0.0466	25.1
m1 = 0.007	0.0312	0.0343	0.0382	0.043	0.0486	24
m1 = 0.008	0.0324	0.0354	0.0396	0.0447	0.0502	23.3
m1 = 0.009	0.0335	0.0369	0.041	0.0464	0.0525	23
m1 = 0.01	–	–	–	–	–	22.4
m1 = 0.015	–	–	–	–	–	21.4
m1 = 0.02	–	–	–	–	–	21.2
m1 = 0.025	–	–	–	–	–	21.3
m1 = 0.03	–	–	–	–	–	21.2

CC(=O)[O-].C[N+]1(CCC[Si](O[Si](C)(C)C)(O[Si](C)(C)C)O[Si](C)(C)C)CCCC1 + O
298.15 K
Conditions	surface tension liquid-gas [mN/m]
m1 = 1e-06	70.5
m1 = 1e-05	58.2
m1 = 0.0001	47.1
m1 = 0.0002	42.4
m1 = 0.0004	36.9
m1 = 0.0006	32.1
m1 = 0.0008	29.7
m1 = 0.001	27.8
m1 = 0.002	23.5
m1 = 0.003	21.5
m1 = 0.004	20.2
m1 = 0.005	20
m1 = 0.006	20
m1 = 0.007	20
m1 = 0.008	20
m1 = 0.009	20
